Calls of active or inactive are those of the source. No cut-off for these calls is given here.
Legend:
[1] = system: Rattus norvegicus; assay: Antiretinopathic activity in Sprague-Dawley rat streptozotocin-induced diabetic model assessed as effect on retinal endothelial cell count at 50 mg/kg/day administered with drinking water after 3 months by hematoxylin and eosin staining; assay type: functional, organism-based
[2] = system: Rattus norvegicus; assay: Antiretinopathic activity in Sprague-Dawley rat streptozotocin-induced diabetic model assessed as increase of retinal electron density of basement membrane at 50 mg/kg/day administered with drinking water after 6 months by transmission electron microscopic analysis; assay type: functional, organism-based
[3] = system: Rattus norvegicus; assay: Antiretinopathic activity in Sprague-Dawley rat streptozotocin-induced diabetic model assessed as ratio of retinal endothelial cell count to pericyte cell count at 50 mg/kg/day administered with drinking water after 6 months by hematoxylin and eosin staining (reference value: 10.91 +/- 3.34); assay type: functional
[4] = system: Rattus norvegicus; assay: Antiretinopathic activity in Sprague-Dawley rat streptozotocin-induced diabetic model assessed as ratio of retinal endothelial cell count to pericyte cell count at 50 mg/kg/day administered with drinking water after 3 months by hematoxylin and eosin staining (reference value: 3.25 +/- 0.27); assay type: functional
[5] = system: Rattus norvegicus; assay: Effect on fasting blood glucose level in normal Sprague-Dawley rat 50 mg/kg/day administered with drinking water after 3 months (reference value: 5.68 +/- 0.96 mmol/L); assay type: functional
[6] = system: Rattus norvegicus; assay: Antidiabetic activity in Sprague-Dawley rat streptozotocin-induced diabetic model assessed as reduction of fasting blood glucose level at 50 mg/kg/day administered with drinking water after 6 months (reference value: 20.20 +/- 5.51 mmol/L); assay type: functional
[7] = system: Rattus norvegicus; assay: Effect on fasting blood glucose level in normal Sprague-Dawley rat 50 mg/kg/day administered with drinking water after 6 months (reference value: 5.51 +/- 1.06 mmol/L); assay type: functional
[8] = system: Rattus norvegicus; assay: Toxicity in normal Sprague-Dawley rat assessed as retinal advanced glycated end products positive area at 50 mg/kg/day administered with drinking water after 6 months by immunohistochemistry analysis (reference value: 0.75 +/- 0.94%); assay type: organism-based; conditions: in vivo
[9] = system: Rattus norvegicus; assay: Toxicity in normal Sprague-Dawley rat assessed as reduction of body weight at 50 mg/kg/day administered with drinking water after 6 months (reference value: 547.50 +/- 36.23 g); assay type: organism-based; conditions: in vivo
[10] = system: Rattus norvegicus; assay: Antiretinopathic activity in Sprague-Dawley rat streptozotocin-induced diabetic model assessed as effect on retinal pericyte cell count at 50 mg/kg/day administered with drinking water after 3 months by hematoxylin and eosin staining; assay type: functional, organism-based
[11] = system: Rattus norvegicus; assay: Antiretinopathic activity in Sprague-Dawley rat streptozotocin-induced diabetic model assessed as reduction of retinal advanced glycated end products positive area at 50 mg/kg/day administered with drinking water after 6 months by immunohistochemistry analysis (reference value: 78.70 +/- 7.11%); assay type: functional; set-up: scale not given: the % may be the effect or the level left
[12] = system: Rattus norvegicus; assay: Antidiabetic activity in Sprague-Dawley rat streptozotocin-induced diabetic model assessed as reduction of body weight at 50 mg/kg/day administered with drinking water after 6 months (reference value: 254.50 +/- 123.03 g); assay type: functional
[13] = system: Rattus norvegicus; assay: Toxicity in normal Sprague-Dawley rat assessed as effect on retinal endothelial cell count at 50 mg/kg/day administered with drinking water after 3 months by hematoxylin and eosin staining; assay type: organism-based; conditions: in vivo
[14] = system: Rattus norvegicus; assay: Toxicity in normal Sprague-Dawley rat assessed as effect on retinal endothelial cell count at 50 mg/kg/day administered with drinking water after 6 months by hematoxylin and eosin staining; assay type: organism-based; conditions: in vivo
[15] = system: Rattus norvegicus; assay: Toxicity in normal Sprague-Dawley rat assessed as retinal advanced glycated end products positive area at 50 mg/kg/day administered with drinking water after 3 months by immunohistochemistry analysis (reference value: 0.64 +/- 0.87%); assay type: organism-based; conditions: in vivo
[16] = system: Rattus norvegicus; assay: Antiretinopathic activity in Sprague-Dawley rat streptozotocin-induced diabetic model assessed as effect on retinal endothelial cell count at 50 mg/kg/day administered with drinking water after 6 months by hematoxylin and eosin staining; assay type: functional, organism-based
[17] = system: Rattus norvegicus; assay: Antiretinopathic activity in Sprague-Dawley rat streptozotocin-induced diabetic model assessed as effect on retinal pericyte cell count at 50 mg/kg/day administered with drinking water after 6 months by hematoxylin and eosin staining; assay type: functional, organism-based
[18] = system: Rattus norvegicus; assay: Toxicity in normal Sprague-Dawley rat assessed as effect on retinal pericyte cell count at 50 mg/kg/day administered with drinking water after 3 months by hematoxylin and eosin staining; assay type: organism-based; conditions: in vivo
[19] = system: Rattus norvegicus; assay: Toxicity in normal Sprague-Dawley rat assessed as reduction of body weight at 50 mg/kg/day administered with drinking water after 3 months (reference value: 561.00 +/- 32.04 g); assay type: organism-based; conditions: in vivo
[20] = system: Rattus norvegicus; assay: Antiretinopathic activity in Sprague-Dawley rat streptozotocin-induced diabetic model assessed as reduction of retinal advanced glycated end products positive area at 50 mg/kg/day administered with drinking water after 3 months by immunohistochemistry analysis (reference value: 69.20 +/- 10.75%); assay type: functional; set-up: scale not given: the % may be the effect or the level left
[21] = system: Rattus norvegicus; assay: Antidiabetic activity in Sprague-Dawley rat streptozotocin-induced diabetic model assessed as reduction of fasting blood glucose level at 50 mg/kg/day administered with drinking water after 3 months (reference value: 20.99 +/- 4.13 mmol/L); assay type: functional
[22] = system: Rattus norvegicus; assay: Toxicity in normal Sprague-Dawley rat assessed as effect on retinal pericyte cell count at 50 mg/kg/day administered with drinking water after 6 months by hematoxylin and eosin staining; assay type: organism-based; conditions: in vivo
[23] = system: Rattus norvegicus; assay: Toxicity in normal Sprague-Dawley rat assessed as effect on ratio of retinal endothelial cell count to pericyte cell count at 50 mg/kg/day administered with drinking water after 3 months by hematoxylin and eosin staining (reference value: 2.89 +/- 0.76); assay type: organism-based; conditions: in vivo
[24] = system: Rattus norvegicus; assay: Antidiabetic activity in Sprague-Dawley rat streptozotocin-induced diabetic model assessed as reduction of body weight at 50 mg/kg/day administered with drinking water after 3 months (reference value: 206.00 +/- 52.59 g); assay type: functional
[25] = system: Rattus norvegicus; assay: Antiretinopathic activity in Sprague-Dawley rat streptozotocin-induced diabetic model assessed as swollen of retinal pericyte mitochondria and endothelial cells at 50 mg/kg/day administered with drinking water after 6 months by transmission electron microscopic analysis; assay type: functional, organism-based; conditions: Endothelial cell
[26] = system: Rattus norvegicus; assay: Toxicity in normal Sprague-Dawley rat assessed as effect on ratio of retinal endothelial cell count to pericyte cell count at 50 mg/kg/day administered with drinking water after 6 months by hematoxylin and eosin staining (reference value: 3.58 +/- 0.61); assay type: organism-based; conditions: in vivo

SMILES: N=C(N)NN [PIMAGEDINE]
- Activity [1]: inactive
- Activity [2]: inactive
- Ratio [3]: 3.71
- Ratio [4]: 3.06
- Activity [5]: 5.23 mmol/L
- Activity [6]: 21.74 mmol/L
- Activity [7]: 5.07 mmol/L
- Activity [8]: 3.27%
- Activity [9]: 553 g
- Activity [10]: inactive
- Activity [11]: 9.16%
- Activity [12]: 284.5 g
- Activity [13]: Non-toxic
- Activity [14]: Non-toxic
- Activity [15]: 1.33%
- Activity [16]: inactive
- Activity [17]: inactive
- Activity [18]: Non-toxic
- Activity [19]: 536.5 g
- Activity [20]: 12.71%
- Activity [21]: 21.89 mmol/L
- Activity [22]: Non-toxic
- Ratio [23]: 2.95
- Activity [24]: 219.5 g
- Activity [25]: Active
- Ratio [26]: 3.46

— ChEMBL document CHEMBL2040726, “The effects of aminoguanidine on retinopathy in STZ-induced diabetic rats” (Bioorg Med Chem Lett, 2012)
